Data published in patent publication US10392599B2, “Method for non-freeze low-temperature preservation of mammalian embryo or fertilized egg” (NATIONAL FEDERATION OF AGRICULTURAL COOPERATIVE ASSOCIATIONS, priority 2012, dated 2019).
Values belong to the molecule of their own block, whether it stands above or below them.

How the values were obtained:
[1] = system: bovine embryos; experiment: in vitro culture test of low-quality bovine embryos after 7 days of non-freezing preservation (survival, hatching); format: cell-based, Japanese Black Cattle and Holstein Cattle; conditions: for Hatched embryos (%) / Survival rate (%) / Hatched embryos: number / Survival rate: number of surviving embryos: medium 199, low temperature 7 days; for Hatched embryos: number / Survival rate: number of surviving embryos: out of N; for Number of hatched embryos (%) / Number of live embryos (%) / Number of hatched embryos / Number of live embryos: medium 199, 7 days non-frozen
Procedure: (§1) Embryos collected from donor bovine animals of Japanese Black Cattle and Holstein Cattle after superovulation were evaluated for their qualities according to the regulation by International Embryo Transfer Society (IETS manual. Manual of the international embryo transfer society. In: Stringfellow D A, Seidel S M, editors. Savoy, Ill., USA: IETS 1998). Low-quality embryos were subjected to an in vitro culture test after 7 days of non-freezing preservation, and high-quality embryos were subjected to investigation of the conception rate after implantation to recipient cattle.
(§2) Preservation of bovine embryos was carried out as follows (FIG. 1). First, a preservative solution alone was sucked into a straw having a capacity of 0.25 ml, and, after introduction of an air layer, a bovine embryo contained in the preservative solution was sucked. Thereafter, an air layer was introduced, and the preservative solution alone was sucked again. The straw was then sealed. Subsequently, the straw containing the sucked bovine embryo was immersed in water contained in a plastic container (plastic tube) which had been preliminarily cooled to 4 to 5° C. The plastic container was then stored in a refrigerator for 7 days at 4 to 5° C.
(§3) After the non-freezing preservation, the bovine embryo was washed 3 times by immersion in PBS(+) containing 5% (v/v) fetal bovine serum (FBS). The washed bovine embryo was cultured under 5% CO2 at 38° C. in CR1aa medium containing 5% (v/v) FBS for 48 hours. Morphological observation was carried out under a stereoscopic microscope, and the embryo was judged to be alive if the progress of cleavage by the culture could be found and the cytoplasmic membrane was not disrupted. Live cells were checked for whether hatching from the zona pellucida could be observed or not. A bovine embryo washed with PBS(+) containing 5% (v/v) FBS was nonsurgically implanted into the deep part of the corpus-luteum-side uterine horn of each recipient cattle on Day 6 to 8 of an estrous cycle (the date of estrus was defined as Day 0). On Days 30 and 60 of the estrous cycle, pregnancy diagnosis was carried out. For a significance test to verify the effect of the embryo preservation solution according to the present invention, a χ^2 test was used.
(§4) To medium 199 (Invitrogen) supplemented with antibiotics (penicillin G potassium and streptomycin sulfate), FBS was added to 20 to 50% (v/v), and HEPES was also added to a concentration of 0 to 100 mM. In the conception test, a group in which a special peptide having a protection effect against low temperature (mature Nfel1, SEQ ID NO:2) was added was also provided. In addition, in order to investigate the effects of other Good's buffers other than HEPES, preservation solutions were prepared by adding FBS and a Good's buffer (PIPES or MOPS) to medium 199 such that the concentration of FBS was 50% (v/v) and the concentration of the Good's buffer was 25 mM. These preservation solutions were sterilized by filtration through a filter having a pore size of 0.2 μm, and stored in a refrigerator until use.
Using medium 199 to which a Good's buffer was added at 25 mM (FBS concentration, 50% (v/v) FBS), bovine embryos were preserved at low temperature for 7 days, and the survival rate and the hatching rate were investigated by the method described above. […] In Table 3, “pH” indicates the pH of the medium upon completion of the refrigerated storage for 7 days.

[2] = pH of the preservative solution upon completion of preservation; format: physicochemical; conditions: for pH of the medium upon completion of the refrigerated storage for 7 days: Good's buffer 25 mM, FBS 50% (v/v), medium 199; for pH upon completion of preservation: medium 199, 7 days
Procedure: Preservation of bovine embryos was carried out as follows (FIG. 1). First, a preservative solution alone was sucked into a straw having a capacity of 0.25 ml, and, after introduction of an air layer, a bovine embryo contained in the preservative solution was sucked. Thereafter, an air layer was introduced, and the preservative solution alone was sucked again. The straw was then sealed. Subsequently, the straw containing the sucked bovine embryo was immersed in water contained in a plastic container (plastic tube) which had been preliminarily cooled to 4 to 5° C. The plastic container was then stored in a refrigerator for 7 days at 4 to 5° C. […]

[3] = system: bovine embryos; experiment: conception test: implantation of high-quality bovine embryos preserved 7 days in the non-frozen state into recipient cattle; format: in vivo; conditions: 25 mM HEPES; for Conceptus number on Day 30 / Conceptus number on Day 60: 16 implanted embryos
Procedure: as §1, §2, §3, §4
Subsequently, the conception ability of high-quality bovine embryos that had been preserved in the non-frozen state for 7 days was investigated. Since the concentration of HEPES generally recommended for use in cell culture is 10 to 25 mM (Luo S et al., Effect of HEPES buffer on the uptake and transport of P-glycoprotein substrates and large neutral amino acids. Mol Pharm 2010; 7:412-420), the concentration of HEPES in the non-freezing preservative solution used in the present test for investigation of the conception ability was set to 25 mM. The special recombinant peptide having a protection effect against low temperature (mature Nfel1 peptide) was added to medium 199 containing 50% (v/v) FBS supplemented with 25 mM HEPES, to see whether the peptide improves the conception ability or not.

[4] = system: bovine embryos; conditions: mature Nfel1 in combination with about 20 to 50% (v/v) serum; cited from earlier work
[5] = Good's buffer 25 mM, FBS 50% (v/v)
[6] = 12.5 mM HEPES, 20% FBS, 35 tested embryos
[7] = 12.5 mM HEPES, 50% FBS, 35 tested embryos
[8] = 25 mM HEPES, 20% FBS, 36 tested embryos
[9] = 25 mM HEPES, 50% FBS, 36 tested embryos
[10] = 50 mM HEPES, 20% FBS, 30 tested embryos
[11] = 50 mM HEPES, 50% FBS, 30 tested embryos
[12] = 100 mM HEPES, 50% FBS, 20 tested embryos
[13] = medium 199, 50% (v/v) FBS, 7 days non-frozen
[14] = 25 mM tris (pH adjusted to 7.2 with hydrochloric acid), medium 199, 50% (v/v) FBS, 7 days

Molecule: O=S(=O)(O)CCCN1CCN(CCO)CC1 [EPPS, 3-[4-(2-Hydroxyethyl)-1-piperazinyl]propanesulfonic acid]
Hatched embryos (%) [1, 5]: 10.0%
Survival rate (%) [1, 5]: 35.0%
Hatched embryos: number [1, 5]: 2
Survival rate: number of surviving embryos [1, 5]: 7
pH of the medium upon completion of the refrigerated storage for 7 days [2]: 7.3

Molecule: O=S(=O)(O)CCN1CCN(CCO)CC1 [HEPES, 4-(2-hydroxyethyl)-1-piperazineethanesulfonic acid]
Number of hatched embryos (%) ([1]; 12.5 mM HEPES, 20% FBS): 8.6%
Number of live embryos (%) ([1]; 12.5 mM HEPES, 20% FBS): 25.7%
Number of hatched embryos [1, 6]: 3
Number of live embryos [1, 6]: 9
Number of hatched embryos (%) ([1]; 12.5 mM HEPES, 50% FBS): 25.7%
Number of live embryos (%) ([1]; 12.5 mM HEPES, 50% FBS): 54.3%
Number of hatched embryos [1, 7]: 9
Number of live embryos [1, 7]: 19
Number of hatched embryos (%) ([1]; 25 mM HEPES, 20% FBS): 25.0%
Number of live embryos (%) ([1]; 25 mM HEPES, 20% FBS): 63.9%
Number of hatched embryos [1, 8]: 9
Number of live embryos [1, 8]: 23
Number of hatched embryos (%) ([1]; 25 mM HEPES, 50% FBS): 36.1%
Number of live embryos (%) ([1]; 25 mM HEPES, 50% FBS): 69.4%
Number of hatched embryos [1, 9]: 13
Number of live embryos [1, 9]: 25
Number of hatched embryos (%) ([1]; 50 mM HEPES, 20% FBS): 26.7%
Number of live embryos (%) ([1]; 50 mM HEPES, 20% FBS): 63.3%
Number of hatched embryos [1, 10]: 8
Number of live embryos [1, 10]: 19
Number of hatched embryos (%) ([1]; 50 mM HEPES, 50% FBS): 33.3%
Number of live embryos (%) ([1]; 50 mM HEPES, 50% FBS): 73.3%
Number of hatched embryos [1, 11]: 10
Number of live embryos [1, 11]: 22
Number of hatched embryos (%) ([1]; 100 mM HEPES, 50% FBS): 20.0%
Number of live embryos (%) ([1]; 100 mM HEPES, 50% FBS): 65.0%
Number of hatched embryos [1, 12]: 4
Number of live embryos [1, 12]: 13
effect to protect embryos during non-freezing low-temperature preservation, compared among Good's buffers ([1]; Good's buffer 25 mM, FBS 50% (v/v), medium 199, 7 days): highest effect
Hatched embryos (%) [1, 5]: 36.1%
Survival rate (%) [1, 5]: 69.4%
Hatched embryos: number [1, 5]: 13
Survival rate: number of surviving embryos [1, 5]: 25
survival rate after preservation for 7 days compared to the HEPES-free group ([1]; HEPES 12.5 to 100 mM, low-quality bovine embryos): higher survival rate
rate of hatching from the zona pellucida ([1]; HEPES 25 to 50 mM, FBS 50% (v/v)): especially high
pH upon completion of preservation ([2]; 12.5 mM HEPES, 20% FBS): 7.4
pH upon completion of preservation ([2]; 12.5 mM HEPES, 50% FBS): 7.4
pH upon completion of preservation ([2]; 25 mM HEPES, 20% FBS): 7.3
pH upon completion of preservation ([2]; 25 mM HEPES, 50% FBS): 7.0
pH upon completion of preservation ([2]; 50 mM HEPES, 20% FBS): 6.9
pH upon completion of preservation ([2]; 50 mM HEPES, 50% FBS): 6.8
pH upon completion of preservation ([2]; 100 mM HEPES, 50% FBS): 6.9
pH of the medium upon completion of the refrigerated storage for 7 days [2]: 7.0
pH of the non-freezing preservative solution containing HEPES upon completion of the preservation ([2]; HEPES-containing solutions of Table 1): 6.9 to 7.4
conception rate ([3]; high-quality bovine embryos, 7 days non-frozen, medium 199, 50% (v/v) FBS): 75.0%
Conceptus number on Day 30 (%) [3, 13]: 75.0%
Conceptus number on Day 60 (%) [3, 13]: 75.0%
birth of calves [3, 13]: birth of normal calves could be observed
death of early embryos between Day 30 and Day 60 of pregnancy [3, 13]: not found
Conceptus number on Day 30 [3, 13]: 12
Conceptus number on Day 60 [3, 13]: 12

pH of the medium upon completion of the refrigerated storage for 7 days [2]: 7.0
Molecule: O=S(=O)(O)CCCN1CCOCC1 [MOPS, 3-Morpholinopropanesulfonic acid]
Hatched embryos (%) [1, 5]: 25.0%
Survival rate (%) [1, 5]: 45.0%
Hatched embryos: number [1, 5]: 5
Survival rate: number of surviving embryos [1, 5]: 9

Molecule: O=S(=O)(O)CCN1CCN(CCS(=O)(=O)O)CC1 [PIPES, Piperazine-1,4-bis(2-ethanesulfonic acid)]
Hatched embryos (%) [1, 5]: 25.0%
Survival rate (%) [1, 5]: 40.0%
Hatched embryos: number [1, 5]: 5
Survival rate: number of surviving embryos [1, 5]: 8
pH of the medium upon completion of the refrigerated storage for 7 days [2]: 7.0

pH of the medium upon completion of the refrigerated storage for 7 days [2]: 7.2
Molecule: O=S(=O)(O)CCNC(CO)(CO)CO [TES, N-Tris(hydroxymethyl)methyl-2-aminoethanesulfonic acid]
Hatched embryos (%) [1, 5]: 15.0%
Survival rate (%) [1, 5]: 30.0%
Hatched embryos: number [1, 5]: 3
Survival rate: number of surviving embryos [1, 5]: 6

Molecule: Special recombinant peptide: special peptide having a protection effect against low temperature (mature Nfel1, SEQ ID NO:2), 66 residues, expressed in E. coli
period of preservation of bovine embryos at non-freezing low temperature [4]: up to 5 days
Conceptus number on Day 30 (%) [3, 13]: 75.0%
Conceptus number on Day 60 (%) [3, 13]: 75.0%
Conceptus number on Day 30 [3, 13]: 12
Conceptus number on Day 60 [3, 13]: 12
conception-promoting effect ([3]; peptide added to medium 199, 50% (v/v) FBS): No conception-promoting effect was found

pH after the low-temperature preservation ([2]; 25 mM tris, medium 199, 50% (v/v) FBS, 7 days): 7.2
Molecule: tris(hydroxymethyl)aminomethane [reference compound]
hatching rate after the preservation [1, 14]: 5.0%
survival rate after the preservation [1, 14]: 10.0%
